From patent US7939542B2, “Cinnamaldehyde derivatives having improved solubility in water, a method for preparing the same and a pharmaceutical composition comprising the same” (Korea Research Institute of Bioscience and Biotechnology, priority 2008, dated 2011)

Columns and labels:
[1] = tested on: human colon carcinoma SW620 cells; assay: Cell cycle analysis by flow cytometry (PI staining); type: cell-based; settings: 48 hours
Procedure: In practice, when human colon carcinoma SW620 cells are dosed with 10 to 20 μM of the compound of Chemical Formula 1, the compound induces a cell cycle arrest in the G2/M phase, leading to cell growth inhibition. The inhibition of the growth of cancer cells may be tested as follows. In brief, human colon carcinoma SW620 cells were dosed with the compound dissolved in DMSO. After 48 hrs, nuclear DNA was stained with propidium iodide. The stained cells were analyzed to determine the cell cycle using a FACSCalibur cytometer (Becton-Dickinson, San Jose, Calif., USA). The proportions of cells in G1, S and G2/M phases were determined using a Becton-Dickinson Modifit cell-cycle analysis program and expressed as percentages.
For flow cytometric analysis, human colon carcinoma SW620 cells were plated in T25 flasks (containing 7.5 ml of culture medium) and cultured in RPMI 1640 and DMEM media, each of which was supplemented with 10% FBS, in an incubator at 37° C. for 12 hrs. Then, as a control, DMSO was added to the culture medium at a final concentration of 0.1% (7.5 μl). As compound treatment groups, 7.5 μl of each of compounds dissolved in DMSO at various concentrations was added to the culture medium. After 48 hours, control (DMSO) and compound-treated cells were harvested and subjected to flow cytometric analysis.
After the culture media were removed from flasks, cells were trypsinized and centrifuged at 300 g for 5 min. The collected cells were washed with phosphate buffer twice to remove culture media. The cells were then fixed in 3 ml of 70% ethanol at −20° C. for 12 hrs. The fixed cells were centrifuged at 300 g for 5 min and washed with cold PBS twice to remove remaining ethanol. The washed cells were resuspended in 500 μl of PBS, and treated with 50 μl of 100 μg/ml RNase A at 37° C. for 30 min. Then, cells were incubated in 10 μl of 1 mg/ml propidium iodide (PI) in PBS for DNA staining. The cell cycles of 20,000 stained cells were analyzed using a FACSCalibur cytometer (Becton-Dickinson, San Jose, Calif., USA). Cell cycle fractions were quantified using a Becton-Dickinson Modifit cell-cycle analysis program, and the distribution of cells in G1, S and G2/M phases was expressed as percentages.

[2] = Solubility (physicochemical properties); settings: for Solubility: Insoluble: solvents in which the compound is insoluble; for Solubility: Soluble: solvents in which the compound is soluble
[3] = tested on: human colon carcinoma HT-29 cells; assay: Anticancer activity upon oral administration to tumor-xenografted nude mice; type: in vivo; settings: HT-29 xenograft, 10 mg/kg orally once every day, Day 18, p<0.001
Procedure: Tumor diameter was measured in three planes with a vernier caliper. Tumor volume (V) was calculated using the following Equation 1. Tumor volume=(Length×Width×Height)/2 [Equation 1]
On Day 18 of tumor transplantation, animals were sacrificed, and tumors were excised and weighed.

[4] = Body weight change in tumor-xenografted nude mice; settings: positive control 2 mg/kg, 18 days, p<0.001
Procedure: Nude mice were divided into three groups: a compound administration group, a vehicle control group and a positive control group. A 0.3-ml aliquot of human colon carcinoma HT-29 cells (3×10^7 cells/ml) was injected subcutaneously into the right axilla between the scapular region and the chest wall of mice. From the day (Day 1) after tumor transplantation to the day before sacrifice, the compound of Chemical Formula 6 was administered orally at a dose of 10 mg/kg once every day.
In order to investigate the clinical signs of drug toxicity, animals were monitored for change in body weight about three times a week during the test period.

SMILES	Cell distribution (%) G0-G1 ([1]; SW620, 20 μM) [%]	Cell distribution (%) G2-M ([1]; SW620, 20 μM) [%]	Cell distribution (%) S ([1]; SW620, 20 μM) [%]	Solubility: Insoluble [2]	Solubility: Soluble [2]	Water solubility [2] [µM]	Cell distribution (%) G0-G1 ([1]; SW620, 30 μM) [%]	Cell distribution (%) G2-M ([1]; SW620, 30 μM) [%]	Cell distribution (%) S ([1]; SW620, 30 μM) [%]	Cell distribution (%) G0-G1 ([1]; SW620, 40 μM) [%]	Cell distribution (%) G2-M ([1]; SW620, 40 μM) [%]	Cell distribution (%) S ([1]; SW620, 40 μM) [%]	tumor growth inhibitory effect [3] [%]	weight loss [4] [%]
COCC(=O)Oc1ccccc1/C=C/C=O [Compound of Formula 2]	33.00	49.94	17.06	Hexane	Alcohol, DMSO	320	–	–	–	–	–	–	–	–
O=C/C=C/c1ccccc1OCc1ccncc1 [Compound of Formula 3]	39.80	33.63	26.57	Hexane, H2O	Alcohol, DMSO	–	–	–	–	–	–	–	–	–
CN1CCN(C(=O)Oc2ccccc2/C=C/C=O)CC1 [Compound of Formula 4]	–	–	–	Hexane, H2O	Alcohol, DMSO	–	37.50	45.49	17.01	–	–	–	–	–
O=C/C=C/c1ccccc1OS(=O)(=O)c1ccccc1 [Compound of Formula 5]	36.01	45.94	18.05	Hexane	Alcohol, DMSO	600	–	–	–	–	–	–	–	–
Cl.O=C/C=C/c1ccccc1OCc1ccncc1 [Compound of Formula 6]	39.80	33.63	26.57	Hexane, acetone	Alcohol, H2O	–	–	–	–	43.85	41.31	14.84	30.7	–
CN1CCN(C(=O)Oc2ccccc2/C=C/C=O)CC1.Cl [Compound of Formula 7]	–	–	–	Hexane, acetone	Alcohol, H2O	–	35.11	47.83	17.06	–	–	–	–	–
COc1cccc2c1C(=O)c1c(O)c3c(c(O)c1C2=O)C[C@@](O)(C(=O)CO)C[C@@H]3O[C@H]1C[C@H](N)[C@H](O)[C@H](C)O1 [adriamycin]	–	–	–	–	–	–	–	–	–	–	–	–	–	10.3
